Assay results reported in PubChem BioAssay (NCI).
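How tested: cells in 96-well plates exposed to compound for 48 hours at five concentrations. TGI marks complete inhibition of growth.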

Key:
Test in all cases: DTP human tumour cell line panel, 48 h
786-0 renal = system: 786-0 renal
A498 renal = system: A498 renal
A549 NSCLC = system: A549 NSCLC
ACHN renal = system: ACHN renal
CAKI-1 renal = system: CAKI-1 renal
CCRF-CEM leukemia = system: CCRF-CEM leukemia
COLO 205 colon = system: COLO 205 colon
DLD-1 colon = system: DLD-1 colon
DMS 114 small cell lung = system: DMS 114 small cell lung
DMS 273 small cell lung = system: DMS 273 small cell lung
EKVX NSCLC = system: EKVX NSCLC
HCC-2998 colon = system: HCC-2998 colon
HCT-15 colon = system: HCT-15 colon
HOP-18 NSCLC = system: HOP-18 NSCLC
HOP-62 NSCLC = system: HOP-62 NSCLC
HOP-92 NSCLC = system: HOP-92 NSCLC
HT29 colon = system: HT29 colon
IGROV1 ovarian = system: IGROV1 ovarian
K-562 leukemia = system: K-562 leukemia
KM12 colon = system: KM12 colon
KM20L2 colon = system: KM20L2 colon
LOX IMVI melanoma = system: LOX IMVI melanoma
LXFL 529 NSCLC = system: LXFL 529 NSCLC
M14 melanoma = system: M14 melanoma
M19-MEL melanoma = system: M19-MEL melanoma
MALME-3M melanoma = system: MALME-3M melanoma
MOLT-4 leukemia = system: MOLT-4 leukemia
NCI-H23 lung = system: NCI-H23 lung
NCI-H460 lung = system: NCI-H460 lung
NCI-H522 lung = system: NCI-H522 lung
OVCAR-3 ovarian = system: OVCAR-3 ovarian
OVCAR-4 ovarian = system: OVCAR-4 ovarian
OVCAR-5 ovarian = system: OVCAR-5 ovarian
OVCAR-8 ovarian = system: OVCAR-8 ovarian
RPMI-8226 leukemia = system: RPMI-8226 leukemia
RXF 393 renal = system: RXF 393 renal
SF-268 CNS = system: SF-268 CNS
SF-295 CNS = system: SF-295 CNS
SF-539 CNS = system: SF-539 CNS
SK-MEL-2 melanoma = system: SK-MEL-2 melanoma
SK-MEL-28 melanoma = system: SK-MEL-28 melanoma
SK-MEL-5 melanoma = system: SK-MEL-5 melanoma
SK-OV-3 ovarian = system: SK-OV-3 ovarian
SN12C renal = system: SN12C renal
SNB-19 CNS = system: SNB-19 CNS
SNB-75 CNS = system: SNB-75 CNS
SNB-78 CNS = system: SNB-78 CNS
SW-620 colon = system: SW-620 colon
TK-10 renal = system: TK-10 renal
U251 CNS = system: U251 CNS
UACC-257 melanoma = system: UACC-257 melanoma
UACC-62 melanoma = system: UACC-62 melanoma
UO-31 renal = system: UO-31 renal
XF 498 CNS = system: XF 498 CNS

Measured: TGI

NC(N)=NS(=O)(=O)c1ccc(NC(=O)c2cccc3c(Nc4ccc(S(N)(=O)=O)cc4)c4ccccc4nc23)cc1
> 100 µM: all assays above
